Assay results published in patent publication US10799593B2, “Nanodiamond particle complexes” (priority 2008, dated 2020).

How the values were obtained:
RAW 264.7 macrophages = assay: Electrophoretic DNA fragmentation assay on Parylene A substrates; assay type: cell-based, murine
Excerpt: Substrate Preparation. Plain glass slides were sterilized in 70% ethanol and pre-treated with A-174 Silane (SCS COATINGS, Indianapolis, Ind.) adhesion promoter according to manufacturer's protocol. Approximately 20 grams of Parylene A (UNIGLOBE KISCO, White Plains, N.Y.) was loaded into a Parylene deposition system (PDS) 2010 LABCOTER® 2 (SCS COATINGS.) The deposition took place under previously indicated conditions (Kramer et al. 1984, 22, 475, Yang et al. Journal of Crystal Growth 1998, 183, 385, herein incorporated by reference in their entireties). Application of drug to the base layer of Parylene A was accomplished via desiccation of 100 μg dexmnethasone (SIGMA ALDRICH, St Louis, Mo.), or 25 μg doxorubicin (U.S. PHARMACOPIA, Rockville, Md.) under a laminar flow hood. A second layer of 150 mg of Parylene A was deposited over the drug films to produce the eluting layer.
Cell Culture Conditions. Macrophage cell line RAW 264.7 (AICC Manassas, Va.) cells were grown in DMEM media ([…] Inc, Hemdon, Va.) supplemented with 10% FBS (AICC) and 1% Penicillin/Streptomycin (LONZA, Walkersville, Md.). Investigation of inflammation pathways utilized lipo-polysacchmide 5 ng/ml (SIGMA ALDRICH) and resultant expression of IL-6 and TNF-α genes. Analysis of cellular apoptosis was accomplished using agarose electrophoresis of DNA fragmentation.
Electrophoretic Assay. […]

[1] = test system: RAW 264.7 murine macrophages; assay: DNA fragmentation assay on DOX-ND Parylene C devices; assay type: cell-based; settings: 16 and 20 hours, DOX positive control 2.5 μg/mL
Protocol: Materials and Device Fabrication. A conformal 3 g base layer of Parylene C was deposited on pre-cut 2.5 cm×2.5 cm glass slides with a […] COATING SYSTEMS (SCS) PDS 2010 LABCOATER (SCS, Indianapolis, Ind.). The Parylene layer was oxidized via oxygen plasma treatment in a HARRICK Plasma Cleaner/Sterilizer (Ithaca, N.Y.) at 100 W for one minute. A DOX-ND solution was then added to the base layer so that the final DOX-ND concentration in solution was 6.6 μg/ml. Subsequently, solvent evaporation occurred in isolation at room temperature. Following DOX-ND deposition, an ultra-thin 0.15 g palylene C layer was deposited as an elution-limiting and control element. The final layer of Parylene C was treated with oxygen plasma at 100 W for one minute. Parylene C was pyrolized into a gaseous monomer at 690° C., and deposited at room temperature under vacuum conditions for all depositions. The preceding parameters apply to devices fabricated for spectroscopy studies. The present invention is not limited to these parameters. The concentration of DOX-ND was adjusted for devices used in the DNA fragmentation assay so that the final DOX-ND concentration in solution was 33 μg/ml.
DNA Fragmentation Assay. […]

[2] = PBS compared with water; Pierstorff et al. 2008; cited from earlier work
[3] = Spectroscopic analysis of DOX elution from Parylene A bi-layer; assay type: physicochemical; settings: PBS
Protocol: Spectroscopy Analysis. […] Samples were placed in a 12 well plate immersed in 1.0 ml of PBS for 10 min, 20 min, 40 min, 1 hour, 4 hour, and 24 hour increments. After each time point the solution was removed and the drug eluting glass disks were transferred to a vacant well and replenished with […] of PBS. Remaining solutions were analyzed in a DU Series 700 UV-Vis Scanning Spectrophotometer (BECKMAN COULTER, Fullerton, Calif.).

## COc1cccc2c1C(=O)c1c(O)c3c(c(O)c1C2=O)C[C@@](O)(C(=O)CO)C[C@@H]3O[C@H]1C[C@H](N)[C@H](O)[C@H](C)O1 [DOX, doxorubicin]
RAW 264.7 macrophages
  DNA fragmentation (apoptosis), electrophoretic gel: fragmentation of DNA indicative of cells actively undergoing apoptosis
[1]
  DNA fragmentation / onset of apoptosis: rigorous DNA fragmentation
[2]
  solubility: less soluble in PBS
[3]; control: DOX applied to a base layer of Parylene A
  release of DOX, additive spectroscopic scans: complete release of DOX
[3]; pinhole sample: DOX between Parylene A layers
  release of DOX, additive spectroscopic scans: gradual release of DOX
